Measured values taken from publication PMC3224213, “Bacterial membrane activity of α-peptide/β-peptoid chimeras: Influence of amino acid composition and chain length on the activity against different bacterial strains” (BMC Microbiology, 2011).

Experiments:
[1] = tested on: S. aureus; experiment: Killing by chimera with or without EDTA pre-treatment; type: cell-based, Staphylococcus aureus
Source text: (§1) Although there was no systematic difference in the MIC values between Gram-positive and -negative bacteria, we speculated that the Gram-negative outer membrane could act as a barrier to the penetration of AMPs, since polymyxin B resistance in S. marcescens has been linked to induced changes in the amount and composition of lipopolysaccharide (LPS) in the outer membrane. Moreover, similar resistance-conferring membrane alterations have also been seen for other bacteria in response to polymyxin B treatment. Accordingly, we studied how a membrane-destabilizing pre-treatment of S. marcescens, E. coli and S. aureus with the divalent metal cation-chelating agent EDTA would affect the killing caused by chimera 1. In these experiments we used a non-lethal 0.5 mM concentration of EDTA together with the non-lethal 1.5 μM concentration of the tested AMP analogue. […] In contrast, cell numbers of both S. marcescens and E. coli were reduced with 4-5 log from an initial value of log ~5.5 within the first 4 hours (not shown) upon treatment with a sub-lethal EDTA concentration together with the chimera.

[2] = tested on: E. coli; experiment: as above; type: cell-based, Escherichia coli
Source text: as §1

[3] = tested on: S. aureus; experiment: ATP leakage bioluminescence assay; type: cell-based, Staphylococcus aureus; conditions: for intracellular ATP concentration: HEPES buffer pH 7.0, two independent experiments; for dose for the immediate maximum ATP release: 500 μg/mL expressed in μM; for minimum chimera dose for the maximum immediate ATP release: doses 100, 250, 500, 1000 μg/mL, immediate release only, data not shown
Experimental: (§2) Pore formation as caused by peptide addition was determined by measuring ATP leakage from the bacterial cell using a bioluminescence assay. The assay was used to estimate differences between sub-typical chimeras 1, 2 and 3 on S. aureus and S. marcescens and to evaluate the effect of chain length of mixed type chimeras 4a, 4b and 4c on S. aureus. In brief, bacteria were grown in TSB at 37°C for 24 hours and then re-inoculated in TSB at 37°C for 6-8 hours until an absorbance at 546 nm of 2.5 for S. aureus and 2.0 for S. marcescens and then harvested (10 min at 2,000 × g). The bacteria were grown to a high absorbance since a high concentration of bacteria was necessary in order to get a measurable response in the ATP leakage assay. Cells were washed once in 50 mM potassium phosphate buffer (pH 7.0) and once in 50 mM HEPES buffer (pH 7.0), before the pellet was resuspended in HEPES buffer to an OD546 ~ 10, and then stored on ice. Before chimera addition bacteria were pre-incubated with 0.2% (w/v) glucose to energize the cells. In general a chimera dose of 1000 μg/mL (corresponding to 280-552 μM for all chimeras) was used for all assays; however, for determining dose response curves additional doses of 100 (28-55 μM), 250 (71-137 μM) and 500 (140-276 μM) μg/mL were tested, and only the immediate release was noted. Total ATP and extracellular ATP were determined with a luminometer […]. Intracellular volumes of S. aureus and S. marcescens (0.85 μm^3 and 1.7 μm^3, respectively) were subtracted from the total volume before calculating the extracellular ATP concentration; the intracellular ATP concentration could then be calculated from this and the total ATP. ATP leakage kinetics was determined on a bacterial suspension prepared as above. Samples were taken at time 0, 5, 10, 20, 30 and 60 minutes and viable counts determined. Both the ATP leakage assay and killing kinetics performed under the same assay conditions were performed in two independent experiments.

[4] = tested on: S. marcescens; experiment: ATP leakage bioluminescence assay; type: cell-based, Serratia marcescens; conditions: 1000 μg/mL chimera
Experimental: as §2

[5] = tested on: S. marcescens; experiment: Killing by chimera with or without EDTA pre-treatment; type: cell-based, Serratia marcescens
Source text: as §1

[6] = tested on: S. aureus 8325; experiment: Killing kinetics (time-kill); type: cell-based, Staphylococcus aureus
Experimental: (§3) In vitro time-kill curves for chimera 1, 2 and 3 were determined against S. aureus 8325 (MIC μM: chimera 1 5.9; chimera 2 2.8; chimera 3 18.7) and Serratia marcescens ATCC 8100 (MIC μM: chimera 1 46.8; chimera 2 45.5; chimera 3 150.0). These two bacterial strains represent organisms susceptible and tolerant to the chimeras, respectively. The bactericidal effect of the three chimeras was tested at MIC in two independent experiments; additionally the effect of chimera 2 was tested at ¼ and 1/2 times MIC. In brief, a suspension prepared from fresh overnight colonies as described above was transferred to 2 mL PBS or cation-adjusted MHB with chimera added (from a 10 × MIC solution) to give a similar bacterial cell density as employed in the MIC determination; the resulting suspension was then incubated at 37°C, 300 rpm. Samples for colony determination were taken at 0, 1, 2, 4, 6 and 8 hours after addition and transferred to a ten-fold dilution row. Colony counts were determined after incubation for 24 hours at 37°C.

[7] = tested on: Serratia marcescens ATCC 8100; experiment: Killing kinetics (time-kill); type: cell-based; conditions: S. marcescens
Experimental: as §3

[8] = tested on: twelve food-borne and clinical bacterial strains; type: cell-based
Experimental: Initial activity experiments were carried out with twelve strains from seven bacterial species representing common laboratory strains and clinical strains derived from both food-borne and nosocomial infections (Table 1). Stock cultures were stored at -80°C in 4% (w/v) glycerol, 0.5% (w/v) glucose, 2% (w/v) skimmed milk powder and 3% (w/v) tryptone soy powder. All experiments were carried out with bacteria incubated for one night (i.e. approximately 18 hours) at 37°C. Experiments were performed in cation-adjusted Mueller Hinton II broth (MHB) (Becton Dickinson 212322) adjusted to pH 7.4 or Tryptone Soy Broth (TSB) (Oxoid CM0129) for the ATP leakage assays. Brain Heart Infusion (BHI) (CM1135) with agar (VWR 20768.292) 1.5% as gelling agent was used throughout for colony plating.
The Minimum Inhibitory Concentration (MIC) of the chimeras was determined against the spectrum of bacteria using the microdilution method according to guidelines of the Clinical and Laboratory Standards Institute (CLSI). Chimera 1:2 serial dilutions were prepared from 1,024 μg/mL stock solutions to give a final range of 512-0.5 μg/mL in the wells. This corresponds to a final range of 144 to 0.14 μM for the heaviest chimera (i.e. chimera 4c) and of 282 to 0.27 μM for the lightest chimera (i.e. chimera 4a). Colonies grown overnight (i.e. approximately 18 hours) on BHI agar were suspended in 0.9% saline to give a turbidity of 0.13 at OD546 (approximately 1 × 10^8 CFU/mL), and then diluted in MHB pH 7.4 to a final concentration of 5 × 10^5 CFU/mL in each well. Following CLSI guidelines the media for testing of Listeria monocytogenes strains were supplemented with 2.5% lysed horse blood. Polypropylene plates (Nunc 442587) were used to minimize peptide binding and incubation time was 18-20 hours at 37°C. MIC was determined in a minimum of two technical replicates as the lowest concentration of the peptide analogue where no visible growth was found. The Minimum Bactericidal Concentration (MBC) was determined by plating 10 μL of the suspension from the first three wells without growth on BHI agar and incubating these for 24 hours at 37°C. MBC was the lowest concentration at which a 99.9% reduction in CFU/mL was observed. Activity is expressed in μmol/L to enable a direct comparison of analogues with different length (= size).

[9] = tested on: S. aureus; experiment: Time-kill under the conditions of the ATP leakage assay; type: cell-based, Staphylococcus aureus; conditions: 1000 μg/mL chimera, same conditions as ATP assay, within the first 20 minutes, initial log ~9.5 per mL
Experimental: as §2

[10] = 1.5 μM chimera alone, data not shown
[11] = 0.5 mM EDTA and 1.5 μM chimera, within the first 4 hours, initial log ~5.5, not shown
[12] = range over strains, summary of Table 2

Structure (SMILES)	ATP leakage (in words) ([3]; 1000 μg/mL chimera)	intracellular ATP concentration ([3]; 1000 μg/mL chimera)	ATP leakage (in words) [4]	dose for the immediate maximum ATP release [3] [µM]	immediate ATP release ([3]; 1000 μg/mL chimera)	minimum chimera dose for the maximum immediate ATP release [3] [µg/mL]	reduction in number of viable cells [9]	other results
CC(=O)N[C@@H](CCCCNC(=N)N)C(=O)N(CCC(=O)N[C@@H](CCCCNC(=N)N)C(=O)N(CCC(=O)N[C@@H](CCCCNC(=N)N)C(=O)N(CCC(=O)N[C@@H](CCCCNC(=N)N)C(=O)N(CCC(=O)N[C@@H](CCCCNC(=N)N)C(=O)N(CCC(=O)N[C@@H](CCCCNC(=N)N)C(=O)N(CCC(N)=O)Cc1ccccc1)Cc1ccccc1)Cc1ccccc1)Cc1ccccc1)Cc1ccccc1)Cc1ccccc1 [Chimera 1]	caused leakage of ATP	rapidly approached zero	caused leakage of ATP					reduction in the number of viable cells, chimera alone [1, 10]: 0.5 log; viable cells, EDTA then chimera versus chimera only ([1]; 0.5 mM EDTA and 1.5 μM chimera): No discernable difference; reduction in the number of viable cells, chimera alone [2, 10]: 1.5 log; reduction of cell numbers, EDTA together with chimera [2, 11]: 4-5 log; extracellular ATP concentration ([3]; 1000 μg/mL chimera, during the first minutes, HEPES buffer pH 7.0, OD546 ~ 10, two independent experiments): ~ 20 μM; intracellular ATP concentration ([4]; HEPES buffer pH 7.0, two independent experiments): rapidly approached zero; extracellular ATP concentration ([4]; during the first minutes, HEPES buffer pH 7.0, OD546 ~ 10, two independent experiments): ~ 5 μM; reduction in the number of viable cells, chimera alone [5, 10]: 1.5 log; reduction of cell numbers, EDTA together with chimera [5, 11]: 4-5 log
CC(=O)N[C@@H](CCCCNC(=N)N)C(=O)N(CCC(=O)N[C@@H](CCCCNC(=N)N)C(=O)N(CCC(=O)N[C@@H](CCCCNC(=N)N)C(=O)N(CCC(=O)N[C@@H](CCCCNC(=N)N)C(=O)N(CCC(=O)N[C@@H](CCCCNC(=N)N)C(=O)N(CCC(=O)N[C@@H](CCCCNC(=N)N)C(=O)N(CCC(N)=O)[C@@H](C)c1ccccc1)[C@@H](C)c1ccccc1)[C@@H](C)c1ccccc1)[C@@H](C)c1ccccc1)[C@@H](C)c1ccccc1)[C@@H](C)c1ccccc1 [Chimera 2]	caused leakage of ATP		caused leakage of ATP					number of viable cells at MIC in MHB ([6]; at MIC in MHB, 37°C, two independent experiments): did not decrease until after 6 hours; decrease in viable cell numbers ([6]; at MIC in PBS, after 4 hours): 2 log; decrease in the number of viable bacteria ([7]; at MIC in MHB, within the first hour, 37°C, two independent experiments): 2 log; viable cells after treatment in PBS ([7]; at MIC in PBS, 37°C): no viable cells remained after the first hour; effect on cell number at ¼ MIC ([7]; ¼ MIC in MHB): reduction in cell number
CC(=O)N[C@@H](CCCCN)C(=O)N(CCC(=O)N[C@@H](CCCCNC(=N)N)C(=O)N(CCC(=O)N[C@@H](CCCCN)C(=O)N(CCC(=O)N[C@@H](CCCCNC(=N)N)C(=O)N(CCC(N)=O)[C@@H](C)c1ccccc1)[C@@H](C)c1ccccc1)[C@@H](C)c1ccccc1)[C@@H](C)c1ccccc1 [Chimera 4a]		approx. 5 μM		276	approximately 15 μM	500	no killing was observed	MIC values times higher than those of chimera 4c ([8]; ratio of MIC to that of chimera 4c, over the strains of Table 2): 15-70 times
CC(=O)N[C@@H](CCCCN)C(=O)N(CCC(=O)N[C@@H](CCCCNC(=N)N)C(=O)N(CCC(=O)N[C@@H](CCCCN)C(=O)N(CCC(=O)N[C@@H](CCCCNC(=N)N)C(=O)N(CCC(=O)N[C@@H](CCCCN)C(=O)N(CCC(=O)N[C@@H](CCCCNC(=N)N)C(=O)N(CCC(N)=O)[C@@H](C)c1ccccc1)[C@@H](C)c1ccccc1)[C@@H](C)c1ccccc1)[C@@H](C)c1ccccc1)[C@@H](C)c1ccccc1)[C@@H](C)c1ccccc1 [Chimera 4b]	same leakage pattern as induced by chimera 4a						no killing was observed	
CC(=O)N[C@@H](CCCCN)C(=O)N(CCC(=O)N[C@@H](CCCCNC(=N)N)C(=O)N(CCC(=O)N[C@@H](CCCCN)C(=O)N(CCC(=O)N[C@@H](CCCCNC(=N)N)C(=O)N(CCC(=O)N[C@@H](CCCCN)C(=O)N(CCC(=O)N[C@@H](CCCCNC(=N)N)C(=O)N(CCC(=O)N[C@@H](CCCCN)C(=O)N(CCC(=O)N[C@@H](CCCCNC(=N)N)C(=O)N(CCC(N)=O)[C@@H](C)c1ccccc1)[C@@H](C)c1ccccc1)[C@@H](C)c1ccccc1)[C@@H](C)c1ccccc1)[C@@H](C)c1ccccc1)[C@@H](C)c1ccccc1)[C@@H](C)c1ccccc1)[C@@H](C)c1ccccc1 [Chimera 4c]		immediately depleted of intracellular ATP		140	approximately 15 μM	500	2 log	MIC values against the clinical strains of E. coli, S. aureus and K. pneumoniae [8, 12]: 2.2 to 9.0 µM; MIC values against the food-borne pathogens L. monocytogenes and Vibro spp. [8, 12]: 1.1 to 2.2 µM
